Source: ChEMBL document CHEMBL1149506, “Synthesis and in vitro biological evaluation of aryl boronic acids as potential inhibitors of factor XIa” (Bioorg Med Chem Lett, 2006)
Where a name gives a salt, the structure may show the parent alone.

Experiments:
Coagulation factor XI = Coagulation factor XI (Homo sapiens, UniProt P03951); experiment: Inhibition of f11a
Prothrombin = Prothrombin (Homo sapiens, UniProt P00734); experiment: Inhibition of thrombin
Trypsin = Trypsin (Homo sapiens, UniProt P07477+P07478+P35030); experiment: Inhibition of trypsin; type: protein assay
Homo sapiens [1] = species on record: Homo sapiens; experiment: Selectivity for f11a over trypsin
Homo sapiens [2] = species on record: Homo sapiens; experiment: Selectivity for f11a over f10a
Coagulation factor X = Coagulation factor X (Homo sapiens, UniProt P00742); experiment: Inhibition of f10a
Chain of Coagulation factor X (P00742 41-179 limits assumed): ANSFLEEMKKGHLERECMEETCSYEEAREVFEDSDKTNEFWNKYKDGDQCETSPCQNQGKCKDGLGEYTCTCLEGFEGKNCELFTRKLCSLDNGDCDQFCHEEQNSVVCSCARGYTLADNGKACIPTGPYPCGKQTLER
Chain of Coagulation factor X (P00742 235-488 limits assumed): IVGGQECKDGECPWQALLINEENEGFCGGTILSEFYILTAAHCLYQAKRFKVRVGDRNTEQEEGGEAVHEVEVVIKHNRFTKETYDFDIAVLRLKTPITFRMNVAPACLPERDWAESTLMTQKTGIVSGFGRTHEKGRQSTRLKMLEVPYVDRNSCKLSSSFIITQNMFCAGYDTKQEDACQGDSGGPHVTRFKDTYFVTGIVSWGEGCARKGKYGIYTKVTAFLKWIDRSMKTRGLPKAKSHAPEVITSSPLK

Chain of Coagulation factor XI (P03951 19-387 limits assumed): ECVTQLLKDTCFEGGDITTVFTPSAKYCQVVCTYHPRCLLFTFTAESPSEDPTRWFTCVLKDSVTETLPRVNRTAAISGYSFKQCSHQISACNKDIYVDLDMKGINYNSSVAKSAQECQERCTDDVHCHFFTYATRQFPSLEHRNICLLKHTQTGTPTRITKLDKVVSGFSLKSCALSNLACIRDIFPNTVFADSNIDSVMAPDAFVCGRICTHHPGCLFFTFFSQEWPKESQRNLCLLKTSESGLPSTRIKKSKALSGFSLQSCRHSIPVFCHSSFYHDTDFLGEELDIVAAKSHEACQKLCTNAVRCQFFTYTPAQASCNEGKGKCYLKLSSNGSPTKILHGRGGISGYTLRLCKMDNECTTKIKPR
Chain of Coagulation factor XI (P03951 388-625 limits assumed): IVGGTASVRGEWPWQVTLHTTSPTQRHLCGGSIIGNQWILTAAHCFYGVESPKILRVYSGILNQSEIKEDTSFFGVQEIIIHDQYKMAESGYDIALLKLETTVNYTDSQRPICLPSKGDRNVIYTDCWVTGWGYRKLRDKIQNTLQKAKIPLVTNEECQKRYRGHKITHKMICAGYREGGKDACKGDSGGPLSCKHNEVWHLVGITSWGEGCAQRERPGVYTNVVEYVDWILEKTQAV

`N=C(N)c1ccccc1` [BENZAMIDINE HYDROCHLORIDE] was tested, and the IC50 (Coagulation factor XI) was 120 µM.
`CC1(C)OB(c2ccc(C(NC(=N)N)OC(=O)c3cccnc3)cc2)OC1(C)C.O=C(O)C(F)(F)F` (stereo not given) was tested, and the IC50 (Prothrombin) was 12.3 µM, the IC50 (Trypsin) was over 200 µM and the IC50 (Coagulation factor XI) was 1.4 µM. For the same molecule, the Selectivity ratio (Homo sapiens [1]) was 200, the Selectivity ratio (Homo sapiens [2]) was 30 and the IC50 (Coagulation factor X) was 43.6 µM.
For `N=C(N)NCc1ccc(B(O)O)cc1.O=C(O)C(F)(F)F`, the IC50 (Prothrombin) was 146 µM, the IC50 (Trypsin) was over 200 µM and the IC50 (Coagulation factor XI) was 22 µM. The Selectivity ratio (Homo sapiens [1]) was 10, the Selectivity ratio (Homo sapiens [2]) was 10 and the IC50 (Coagulation factor X) was over 200 µM.
In the case of `CC1(C)OB(c2ccc(CCN=C(N)N)cc2)OC1(C)C.O=C(O)C(F)(F)F`, the IC50 (Prothrombin) is reported as 30.8 µM, the IC50 (Trypsin) is reported as 20.3 µM and the IC50 (Coagulation factor XI) is reported as 7.3 µM. It also gave a Selectivity ratio (Homo sapiens [1]) of 3, a Selectivity ratio (Homo sapiens [2]) of 25 and an IC50 (Coagulation factor X) of 175 µM.
Molecule `CC1(C)OB(c2ccc(NC(=N)N)cc2)OC1(C)C.O=C(O)C(F)(F)F` has an IC50 (Prothrombin) of 5.5 µM, an IC50 (Trypsin) of 2.3 µM and an IC50 (Coagulation factor XI) of 5.9 µM. The IC50 (Coagulation factor X) was 129 µM.
`NCc1ccc(B(O)O)cc1` was tested, and the IC50 (Coagulation factor XI) was 77.3 µM.
Work on `CC1(C)OB(c2ccc(CN=C(N)N)cc2)OC1(C)C` yielded an IC50 (Prothrombin) of 129 µM, an IC50 (Trypsin) of over 200 µM and an IC50 (Coagulation factor XI) of 24.7 µM. For the same molecule, the Selectivity ratio (Homo sapiens [1]) was 10, the Selectivity ratio (Homo sapiens [2]) was 10 and the IC50 (Coagulation factor X) was over 200 µM.
